From patent US8030321B2, “Benzofuro- and benzothienopyrimidine modulators of the histamine H4 receptor” (Janssen Pharmaceutica, NV, priority 2006, dated 2011)
Counter-ions that a name gives are not always drawn.

Target: T1, human histamine H4 receptor (Homo sapiens, UniProt Q9H3N8)
T1 construct: expressed in transfected cells; host or cells: SK-N-MC cells or COS7 cells, transiently transfected; cell membranes used
Test: Binding Assay on Recombinant Human Histamine H4 Receptor
Settings: competition binding with 3H-histamine (5 nM), membranes of SK-N-MC or COS7 cells expressing human H4 receptor; Cheng-Prusoff, KD 5 nM; average of results obtained; read-out: Ki
Method in brief: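 Membranes from SK-N-MC or COS7 cells transiently transfected with human H4 receptor were incubated with ³H-histamine (5-70 nM); nonspecific binding defined with 10,000 nM histamine. Bound radioactivity collected by GF/C filtration and scintillation counting; test compounds assessed by displacement of ³H-ligand binding across concentrations.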

Compound	Ki [nM]
COc1ccc2c(c1)sc1c(N3CCN(C)CC3)nc(N)nc12 [Example 159, 7-Methoxy-4-(4-methyl-piperazin-1-yl)-benzo[4,5]thieno[3,2-d]pyrimidin-2-ylamine trifluoroacetic acid salt]	180
OCCNc1nc(N2CCNCC2)c2oc3ccc(Cl)cc3c2n1 [Example 160, 2-(8-Chloro-4-piperazin-1-yl-benzo[4,5]furo[3,2-d]pyrimidin-2-ylamino)-ethanol]	> 10000
NC1CN(c2nc(NCCO)nc3c2oc2ccc(Cl)cc23)C1 [Example 162, 2-[4-(3-Amino-azetidin-1-yl)-8-chloro-benzo[4,5]furo[3,2-d]pyrimidin-2-ylamino]-ethanol]	> 10000

Continued, values first:

Ki [nM]	Compound
> 10000	N[C@H]1CCCN(c2nc(NCCO)nc3c2oc2ccc(Cl)cc23)C1 [Example 161, (S)-2-[4-(3-Amino-piperidin-1-yl)-8-chloro-benzo[4,5]furo[3,2-d]pyrimidin-2-ylamino]-ethanol]
718	CN1CCN(c2nc(N(C)C)nc3c2oc2ccc(Cl)cc23)CC1 [Example 163, [8-Chloro-4-(4-methyl-piperazin-1-yl)-benzo[4,5]furo[3,2-d]pyrimidin-2-yl]-dimethyl-amine]
